Measurements published in PubChem BioAssay AID1963847 (Molecular Pharmacology Branch, DTP, NCI, 2024).

System: 415267-285-R-J2-PDC complex spheroid viability
Experiment: Anticancer human tumor 415267-285-R-J2-PDC patient-derived breast carcinoma cell line growth inhibition [POLQ]
Details: for IC50: curve of first compound; for viability, T/C: stronger effect = lower value
In short: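 Three-cell-type spheroids modelling solid tumor plus stroma served as the readout system; POL inhibitors were tested individually and in combination, concentration ranges set by clinical Cmax where known.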

[1] = second compound 0.0316 µM, first compound 0.00316 µM
[2] = second compound 0.0316 µM, first compound 0.01 µM
[3] = second compound 0.0316 µM, first compound 0.0316 µM
[4] = second compound 0.0316 µM, first compound 0.1 µM
[5] = second compound 0.0316 µM, first compound 0.316 µM
[6] = second compound 0.0316 µM, first compound 1 µM
[7] = second compound 0.1 µM, first compound 0.00316 µM
[8] = second compound 0.1 µM, first compound 0.01 µM
[9] = second compound 0.1 µM, first compound 0.0316 µM
[10] = second compound 0.1 µM, first compound 0.1 µM
[11] = second compound 0.1 µM, first compound 0.316 µM
[12] = second compound 0.1 µM, first compound 1 µM
[13] = second compound 0.316 µM, first compound 0.00316 µM
[14] = second compound 0.316 µM, first compound 0.01 µM
[15] = second compound 0.316 µM, first compound 0.0316 µM
[16] = second compound 0.316 µM, first compound 0.1 µM
[17] = second compound 0.316 µM, first compound 0.316 µM
[18] = second compound 0.316 µM, first compound 1 µM
[19] = second compound 1 µM, first compound 0.00316 µM
[20] = second compound 1 µM, first compound 0.01 µM
[21] = second compound 1 µM, first compound 0.0316 µM
[22] = second compound 1 µM, first compound 0.1 µM
[23] = second compound 1 µM, first compound 0.316 µM
[24] = second compound 1 µM, first compound 1 µM
[25] = second compound 3.16 µM, first compound 0.00316 µM
[26] = second compound 3.16 µM, first compound 0.01 µM
[27] = second compound 3.16 µM, first compound 0.0316 µM
[28] = second compound 3.16 µM, first compound 0.1 µM
[29] = second compound 3.16 µM, first compound 0.316 µM
[30] = second compound 3.16 µM, first compound 1 µM
[31] = second compound 10 µM, first compound 0.00316 µM
[32] = second compound 10 µM, first compound 0.01 µM
[33] = second compound 10 µM, first compound 0.0316 µM
[34] = second compound 10 µM, first compound 0.1 µM
[35] = second compound 10 µM, first compound 0.316 µM
[36] = second compound 10 µM, first compound 1 µM
[37] = second compound 0.0316 µM, first compound 3.16 µM
[38] = second compound 0.0316 µM, first compound 10 µM
[39] = second compound 0.1 µM, first compound 3.16 µM
[40] = second compound 0.1 µM, first compound 10 µM
[41] = second compound 0.316 µM, first compound 3.16 µM
[42] = second compound 0.316 µM, first compound 10 µM
[43] = second compound 1 µM, first compound 3.16 µM
[44] = second compound 1 µM, first compound 10 µM
[45] = second compound 3.16 µM, first compound 3.16 µM
[46] = second compound 3.16 µM, first compound 10 µM
[47] = second compound 10 µM, first compound 3.16 µM
[48] = second compound 10 µM, first compound 10 µM
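Note: spheroids exposed to compounds for one week before readout.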
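Throughout, for viability, T/C: luminescence used as stand-in measure of viable cells; 100% = DMSO vehicle control viability.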

Work on `C=CCn1c(=O)c2cnc(Nc3ccc(N4CCN(C)CC4)cc3)nc2n1-c1cccc(C(C)(C)O)n1` + Cc1cccc(N(C)C(=O)C2C(O)CCN2c2nc(C)cc(C(F)(F)F)c2C#N)c1 yielded an IC50 (second compound 0.0316 µM) of 444 nM, an IC50 (second compound 0.1 µM) of 475 nM and an IC50 (second compound 0.316 µM) of 460 nM. The IC50 (second compound 1 µM) was 486 nM, the IC50 (second compound 3.16 µM) was 452 nM and the IC50 (second compound 10 µM) was 425 nM. The viability, T/C [1] was 103%, the viability, T/C [2] was 102% and the viability, T/C [3] was 104%. For the same molecule, the viability, T/C [4] was 116%, the viability, T/C [5] was 67.6% and the viability, T/C [6] was 8%. The viability, T/C [7] was 96.6%, the viability, T/C [8] was 102% and the viability, T/C [9] was 106%. The viability, T/C [10] was 112%, the viability, T/C [11] was 73.6% and the viability, T/C [12] was 6.74%. For the same molecule, the viability, T/C [13] was 103%, the viability, T/C [14] was 105% and the viability, T/C [15] was 109%. It also gave a viability, T/C [16] of 94.5%, a viability, T/C [17] of 71% and a viability, T/C [18] of 7.48%. It also gave a viability, T/C [19] of 103%, a viability, T/C [20] of 103% and a viability, T/C [21] of 107%. The viability, T/C [22] was 108%, the viability, T/C [23] was 76.1% and the viability, T/C [24] was 6.25%. It also gave a viability, T/C [25] of 102%, a viability, T/C [26] of 109% and a viability, T/C [27] of 108%. For the same molecule, the viability, T/C [28] was 123%, the viability, T/C [29] was 69% and the viability, T/C [30] was 7.86%. For the same molecule, the viability, T/C [31] was 108%, the viability, T/C [32] was 106% and the viability, T/C [33] was 122%. For the same molecule, the viability, T/C [34] was 114%, the viability, T/C [35] was 64.1% and the viability, T/C [36] was 9.37%.

With `CCCS(=O)(=O)Nc1ccc(F)c(C(=O)c2c[nH]c3ncc(-c4ccc(Cl)cc4)cc23)c1F` + Cc1cccc(N(C)C(=O)C2C(O)CCN2c2nc(C)cc(C(F)(F)F)c2C#N)c1 the IC50 (second compound 0.0316 µM) was > 10000 nM, the IC50 (second compound 0.1 µM) was > 10000 nM and the IC50 (second compound 0.316 µM) was > 10000 nM. For the same molecule, the IC50 (second compound 1 µM) was > 10000 nM, the IC50 (second compound 3.16 µM) was > 10000 nM and the IC50 (second compound 10 µM) was > 10000 nM. It also gave a viability, T/C [3] of 98.8%, a viability, T/C [4] of 111% and a viability, T/C [5] of 99%. The viability, T/C [6] was 93.8%, the viability, T/C [37] was 86.3% and the viability, T/C [38] was 91.2%. The viability, T/C [9] was 104%, the viability, T/C [10] was 93.5% and the viability, T/C [11] was 93.4%. The viability, T/C [12] was 102%, the viability, T/C [39] was 96.5% and the viability, T/C [40] was 88.9%. It also gave a viability, T/C [15] of 105%, a viability, T/C [16] of 99.4% and a viability, T/C [17] of 90.3%. For the same molecule, the viability, T/C [18] was 102%, the viability, T/C [41] was 97.7% and the viability, T/C [42] was 86.7%. It also gave a viability, T/C [21] of 105%, a viability, T/C [22] of 101% and a viability, T/C [23] of 102%. It also gave a viability, T/C [24] of 99.9%, a viability, T/C [43] of 107% and a viability, T/C [44] of 79.3%. For the same molecule, the viability, T/C [27] was 111%, the viability, T/C [28] was 103% and the viability, T/C [29] was 104%. The viability, T/C [30] was 104%, the viability, T/C [45] was 93.7% and the viability, T/C [46] was 91.1%. It also gave a viability, T/C [33] of 96.4%, a viability, T/C [34] of 96% and a viability, T/C [35] of 109%. It also gave a viability, T/C [36] of 111%, a viability, T/C [47] of 94% and a viability, T/C [48] of 73.8%.

`CNCc1ccc(-c2[nH]c3cc(F)cc4c3c2CCNC4=O)cc1` + Cc1cccc(N(C)C(=O)C2C(O)CCN2c2nc(C)cc(C(F)(F)F)c2C#N)c1 was tested, and the IC50 (second compound 0.0316 µM) was > 10000 nM, the IC50 (second compound 0.1 µM) was > 10000 nM and the IC50 (second compound 0.316 µM) was > 10000 nM. The IC50 (second compound 1 µM) was > 10000 nM, the IC50 (second compound 3.16 µM) was > 10000 nM and the IC50 (second compound 10 µM) was > 10000 nM. It also gave a viability, T/C [3] of 94.8%, a viability, T/C [4] of 97.2% and a viability, T/C [5] of 106%. For the same molecule, the viability, T/C [6] was 116%, the viability, T/C [37] was 94.5% and the viability, T/C [38] was 110%. It also gave a viability, T/C [9] of 99.8%, a viability, T/C [10] of 86.7% and a viability, T/C [11] of 102%. The viability, T/C [12] was 96.3%, the viability, T/C [39] was 105% and the viability, T/C [40] was 105%. For the same molecule, the viability, T/C [15] was 97.5%, the viability, T/C [16] was 103% and the viability, T/C [17] was 101%. For the same molecule, the viability, T/C [18] was 101%, the viability, T/C [41] was 102% and the viability, T/C [42] was 99.6%. It also gave a viability, T/C [21] of 97.8%, a viability, T/C [22] of 96.3% and a viability, T/C [23] of 93.7%. It also gave a viability, T/C [24] of 100%, a viability, T/C [43] of 104% and a viability, T/C [44] of 84.3%. It also gave a viability, T/C [27] of 94%, a viability, T/C [28] of 100% and a viability, T/C [29] of 100%. It also gave a viability, T/C [30] of 98%, a viability, T/C [45] of 97.8% and a viability, T/C [46] of 94.6%. For the same molecule, the viability, T/C [33] was 98.4%, the viability, T/C [34] was 90.2% and the viability, T/C [35] was 96.3%. It also gave a viability, T/C [36] of 95.1%, a viability, T/C [47] of 96.9% and a viability, T/C [48] of 88.9%.

With `COc1cccc(OCCCN)c1-c1cc(Nc2cnc(C#N)cn2)n[nH]1` + Cc1cccc(N(C)C(=O)C2C(O)CCN2c2nc(C)cc(C(F)(F)F)c2C#N)c1 the IC50 (second compound 0.0316 µM) was 7.34 nM, the IC50 (second compound 0.1 µM) was 6.81 nM and the IC50 (second compound 0.316 µM) was 6.37 nM. For the same molecule, the IC50 (second compound 1 µM) was 5.94 nM, the IC50 (second compound 3.16 µM) was 5.9 nM and the IC50 (second compound 10 µM) was 5.77 nM. The viability, T/C [1] was 116%, the viability, T/C [2] was 25.7% and the viability, T/C [3] was 6.57%. For the same molecule, the viability, T/C [4] was 5.98%, the viability, T/C [5] was 5.5% and the viability, T/C [6] was 4.04%. It also gave a viability, T/C [7] of 106%, a viability, T/C [8] of 22.1% and a viability, T/C [9] of 5.33%. For the same molecule, the viability, T/C [10] was 6.85%, the viability, T/C [11] was 7.24% and the viability, T/C [12] was 4.47%. The viability, T/C [13] was 107%, the viability, T/C [14] was 13% and the viability, T/C [15] was 5.56%. It also gave a viability, T/C [16] of 4.64%, a viability, T/C [17] of 4.82% and a viability, T/C [18] of 4.6%. The viability, T/C [19] was 99.2%, the viability, T/C [20] was 9.45% and the viability, T/C [21] was 5.53%. For the same molecule, the viability, T/C [22] was 5.41%, the viability, T/C [23] was 6.23% and the viability, T/C [24] was 4.72%. It also gave a viability, T/C [25] of 97.3%, a viability, T/C [26] of 10.1% and a viability, T/C [27] of 7.08%. The viability, T/C [28] was 5.58%, the viability, T/C [29] was 5.55% and the viability, T/C [30] was 4.93%. It also gave a viability, T/C [31] of 94.3%, a viability, T/C [32] of 9.4% and a viability, T/C [33] of 6.2%. For the same molecule, the viability, T/C [34] was 10.2%, the viability, T/C [35] was 5.74% and the viability, T/C [36] was 5.13%.
